{"source": "patent US8211714B2", "about": "“Characterization of molecules” (Analiza, Inc., priority 2001, dated 2012)", "key": {"bovine β-lactoglobulin": {"target": "T1, bovine β-lactoglobulin (Bos taurus, UniProt P02754)", "T1 sequence (P02754 17-178)": "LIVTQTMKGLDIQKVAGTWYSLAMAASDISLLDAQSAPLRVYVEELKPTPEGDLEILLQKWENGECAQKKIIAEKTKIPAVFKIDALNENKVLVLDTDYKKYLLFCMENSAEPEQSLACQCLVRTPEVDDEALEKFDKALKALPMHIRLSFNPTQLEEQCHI", "assay": "Partitioning of bovine β-lactoglobulin with binding partners in aqueous two-phase systems", "details": "for Partition coefficient K-value, Dex-Ficoll system: 8.88 wt.% Dextran-64, 12.86 wt.% Ficoll-400, 0.01 M sodium phosphate buffer pH 8.6; for Partition coefficient K-value, Dex-Ficoll system / Partition coefficient K-value, Dex-Ficoll-NaSCN system / Partition coefficient K-value, Dex-PEG system: protein:binding partner 1:1; for Partition coefficient K-value, Dex-Ficoll-NaSCN system: 10.98 wt.% Dextran-64, 15.95 wt.% Ficoll-400, […] NaSCN, 0.01 M sodium phosphate buffer pH 8.6; for Partition coefficient K-value, Dex-PEG system: 12.33 wt.% Dextran-64, 6.05 wt.% PEG-6000, 0.15M NaCl, 0.01 M sodium phosphate buffer pH 7.4; for Partition coefficient K-value, PEG/Phosphate system: 13.75 wt.% PEG-600, 21.00 wt.% sodium/potassium phosphate buffer pH 6.8, protein:binding partner molecular ratio 1:1; for effect of binding on the protein K-value: all the systems used", "method": "β-Lactoglobulin from bovine milk, retinol, nitrophenyl phosphate and bromoethanol were purchased from Sigma Chemical Company (St. Louis, Mo., USA) and used without further purification. A stock solution of β-lactoglobulin in water was prepared at a concentration of 10.0 mg/ml. Nitrophenyl phosphate, retinol, and bromoethanol were dissolved in the protein stock solutions in the molecular ratios as indicated in Table 1. These protein/binding partner solutions were subjected to partitioning in a series of different aqueous two-phase systems, also as indicated below.\nThe aqueous two-phase system contained 13.75 wt. % PEG-600 (molecular weight of about 600) and 21.00 wt. % sodium/potassium phosphate buffer (pH 6.8). Each system was prepared by mixing the appropriate amounts of stock polymer and buffer solutions dispensed by liquid handling workstation Hamilton ML-2200 into a 1.2 mL microtube. A total volume of 800 μL was dispensed to the microtube. A varied amount (40, 80, 120, 160, and 200 μL) of the β-lactoglobulin solution or that of a mixture of a given ratio and the corresponding amount (160, 120, 80, 40, and 0.0 μl) of water were added to a system. The ratio between the volumes of the two phases of each system of a final volume of 1.00 mL was as 1:1. The system was shaken vigorously and then centrifuged for 30 min. at about 4000 rpm to speed resolution of the two phases. Tubes were then taken from the centrifuge, aliquots of a given volume (100 μl for direct spectrophotometric analysis and 150 μl for fluorescence analysis) from the top and the bottom phases were withdrawn in duplicate. Each aliquot was diluted, mixed with appropriate reagents, and used for analyzed as described below.\nThe other aqueous two-phase system contained 8.88 wt. % Dextran-64 (molecular weight of about 64,000), 12.86 wt. % Ficoll-400 (molecular weight of about 400,000) and 0.01 M sodium phosphate buffer (pH 8.6). Each system was prepared by mixing the appropriate amounts of stock polymer and buffer solutions dispensed by liquid handling workstation Hamilton ML-2200 into a microtube of a total volume of 1.2 mL up to a total volume of a system of 820 μL. A varied amount (40, 80, 120, and 160 μl) of the β-lactoglobulin solution or that of a mixture of a given ratio and the corresponding amount (140, 100, 60, and 20 μl) of water were added to each system. The ratio between the volumes of the two phases of each system of a final volume of 1.00 mL was as 1:1. The system was shaken vigorously and centrifuged for 30 min. at about 4000 rpm to speed the resolution of the phases. Tubes were taken out of the centrifuge, and aliquots of a given volume (100 μl for direct spectrophotometric analysis and 150 μl for fluorescence analysis) from the top and the bottom phases were withdrawn in duplicate and each diluted and mixed with appropriate reagents as indicated below and used for further analysis performed as described below.\nThe other aqueous two-phase system contained 10.98 wt. % Dextran-64 (molecular weight of about 64,000), 15.95 wt. % Ficoll-400 (molecular weight of about 400,000), 0.24M NaSCN, and 0.01 M sodium phosphate buffer (pH 8.6). Each system was prepared by mixing the appropriate amounts of stock polymer, salt, and buffer solutions dispensed by liquid handling workstation Hamilton ML-2200 into a microtube of a total volume of 1.2 mL up to a total volume of a system of 920 μL. A varied amount (20, 40, 60, and 80 μl) of the β-lactoglobulin solution or that of a mixture of a given ratio and the corresponding amount (60, 40, 20, and 0 μl) of water were added to a system. The ratio between the volumes of the two phases of each system of a final volume of 1.00 mL was as 1:1. The system was vigorously shaken and centrifuged for 30 min. at about 4000 rpm in a centrifuge with a bucket rotor to speed the phase settling."}, "hen egg white lysozyme": {"target": "T2, hen egg white lysozyme (Gallus gallus, UniProt P00698)", "T2 construct": "Lysozyme from hen egg white; purchased Sigma Chemical Company (St. Louis, Mo., USA); host or cells: isolated from hen egg white", "T2 sequence (P00698 19-147)": "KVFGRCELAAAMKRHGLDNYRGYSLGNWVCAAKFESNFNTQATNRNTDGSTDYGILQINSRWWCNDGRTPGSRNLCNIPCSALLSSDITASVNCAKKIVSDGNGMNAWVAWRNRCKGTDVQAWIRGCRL", "assay": "Partitioning of hen egg white lysozyme and its mixtures with binding partners in aqueous two-phase systems", "assay_type": "physicochemical", "details": "for Partition coefficient K-value, Dex-PEG system: pH 7.4; for Partition coefficient K-value, Dex-Ficoll system / Partition coefficient K-value, Dex-Ficoll-Na2SO4 system: pH 8.6", "method": "Glucose and N-acetyl-D-glucosamine were purchased from USB Corporation (Cleveland, Ohio, USA) and used without further purification. Stock solutions of lysozyme in water were prepared at a concentration of 5.0 mg/ml. N,N′-Diacetylchitobiose and N,N′,N″-triacetylchitotriose were dissolved at a concentration of 10 mg/ml and mixed with the protein solution in ratios appropriate to provide protein:ligand molecular ratios of 1:1. Stock solutions of lysozyme and of the lysozyme mixtures with ligands were added to an aqueous two-phase system as described below."}, "[1]": {"assay": "Partitioning of human, bovine and porcine insulin in aqueous two-phase systems", "assay_type": "physicochemical", "details": "pH 7.4", "method": "Human recombinant insulin was purchased from ICN Biomedicals Inc. (Aurora, Ohio, USA), bovine and porcine insulins were purchased from Calbiochem Corporation (San Diego, Calif., USA) and used without further purification. […] Stock solutions of all insulins in 0.009M HCl were prepared and titrated with 0.01M NaOH to pH 6.0 with the final protein concentration of ca. 1.0 mg/ml. Stock solution of human insulin, stock solution of porcine insulin, and stock solution of bovine insulin were added to an aqueous two-phase system as described below."}}}
{"compound": "OCCBr", "values": [{"measurement": "Partition coefficient K-value, Dex-Ficoll system", "setting": "bovine β-lactoglobulin", "value": "0.848 ± 0.009"}, {"measurement": "Partition coefficient K-value, Dex-Ficoll-NaSCN system", "setting": "bovine β-lactoglobulin", "value": "0.486 ± 0.005"}, {"measurement": "Partition coefficient K-value, Dex-PEG system", "setting": "bovine β-lactoglobulin", "value": "0.183 ± 0.001"}, {"measurement": "Partition coefficient K-value, PEG/Phosphate system", "setting": "bovine β-lactoglobulin", "value": "1.904 ± 0.013"}, {"measurement": "effect of binding on the protein K-value", "setting": "bovine β-lactoglobulin", "value": "decreases"}]}
{"compound": "O=[N+]([O-])c1ccc(OP(=O)(O)O)cc1", "values": [{"measurement": "Partition coefficient K-value, Dex-Ficoll system", "setting": "bovine β-lactoglobulin", "value": "0.823 ± 0.018"}, {"measurement": "Partition coefficient K-value, Dex-Ficoll-NaSCN system", "setting": "bovine β-lactoglobulin", "value": "0.420 ± 0.001"}, {"measurement": "Partition coefficient K-value, Dex-PEG system", "setting": "bovine β-lactoglobulin", "value": "0.103 ± 0.001"}, {"measurement": "Partition coefficient K-value, PEG/Phosphate system", "setting": "bovine β-lactoglobulin", "value": "1.714 ± 0.012"}, {"measurement": "effect of binding on the protein K-value", "setting": "bovine β-lactoglobulin", "value": "decreases"}]}
{"compound": "CC(=O)N[C@H]1[C@H](O[C@H]2[C@H](O)[C@@H](NC(C)=O)C(O)O[C@@H]2CO)O[C@H](CO)[C@@H](O[C@@H]2O[C@H](CO)[C@@H](O)[C@H](O)[C@H]2NC(C)=O)[C@@H]1O", "note": "(stereo partly drawn) [N,N′,N″-Triacetylchitotriose]", "values": [{"measurement": "Partition coefficient K-value, PEG-3350-Phosphate system", "setting": "hen egg white lysozyme", "value": "0.461 ± 0.006"}, {"measurement": "Partition coefficient K-value, Dex-PEG system", "setting": "hen egg white lysozyme", "value": "2.033 ± 0.052"}, {"measurement": "Partition coefficient K-value, Dex-Ficoll system", "setting": "hen egg white lysozyme", "value": "0.803 ± 0.004"}, {"measurement": "Partition coefficient K-value, Dex-Ficoll-Na2SO4 system", "setting": "hen egg white lysozyme", "value": "1.106 ± 0.007"}]}
{"compound": "CC(=O)N[C@H]1[C@H](O[C@H]2[C@H](O)[C@@H](NC(C)=O)C(O)O[C@@H]2CO)O[C@H](CO)[C@@H](O)[C@@H]1O", "note": "(stereo partly drawn) [N,N′-Diacetylchitobiose]", "values": [{"measurement": "Partition coefficient K-value, PEG-3350-Phosphate system", "setting": "hen egg white lysozyme", "value": "1.311 ± 0.013"}, {"measurement": "Partition coefficient K-value, Dex-PEG system", "setting": "hen egg white lysozyme", "value": "2.563 ± 0.032"}, {"measurement": "Partition coefficient K-value, Dex-Ficoll system", "setting": "hen egg white lysozyme", "value": "0.826 ± 0.001"}, {"measurement": "Partition coefficient K-value, Dex-Ficoll-Na2SO4 system", "setting": "hen egg white lysozyme", "value": "1.177 ± 0.009"}]}
{"compound": "CC(=O)N[C@H]1C(O)O[C@H](CO)[C@@H](O)[C@@H]1O", "note": "(stereo partly drawn) [N-Acetyl-D-glucosamine]", "values": [{"measurement": "Partition coefficient K-value, PEG-3350-Phosphate system", "setting": "hen egg white lysozyme", "value": "2.402 ± 0.002"}, {"measurement": "Partition coefficient K-value, Dex-PEG system", "setting": "hen egg white lysozyme", "value": "2.860 ± 0.035"}, {"measurement": "Partition coefficient K-value, Dex-Ficoll system", "setting": "hen egg white lysozyme", "value": "0.818 ± 0.003"}, {"measurement": "Partition coefficient K-value, Dex-Ficoll-Na2SO4 system", "setting": "hen egg white lysozyme", "value": "1.214 ± 0.010"}]}
{"compound": "Porcine Insulin: porcine insulin (Calbiochem); differs from human insulin by Ala in position B30", "values": [{"measurement": "Partition coefficient K-value, Dex-Ficoll-NaCl—NaPB", "setting": "[1]", "value": "1.350 ± 0.015"}, {"measurement": "Partition coefficient K-value, Dex-Ficoll-NaSCN—NaPB", "setting": "[1]", "value": "0.911 ± 0.006"}, {"measurement": "Partition coefficient K-value, Dex-PEG-NaClO4—NaPB", "setting": "[1]", "value": "0.656 ± 0.020"}, {"measurement": "Partition coefficient K-value, Dex-PEG-NaSCN—NaPB", "setting": "[1]", "value": "1.514 ± 0.019"}]}
{"compound": "Retinol acetate", "values": [{"measurement": "Partition coefficient K-value, Dex-Ficoll system", "setting": "bovine β-lactoglobulin", "value": "0.812 ± 0.006"}, {"measurement": "Partition coefficient K-value, Dex-Ficoll-NaSCN system", "setting": "bovine β-lactoglobulin", "value": "0.468 ± 0.002"}, {"measurement": "Partition coefficient K-value, Dex-PEG system", "setting": "bovine β-lactoglobulin", "value": "0.196 ± 0.001"}, {"measurement": "Partition coefficient K-value, PEG/Phosphate system", "setting": "bovine β-lactoglobulin", "value": "1.858 ± 0.016"}, {"measurement": "effect of binding on the K-value of the protein", "setting": "bovine β-lactoglobulin; Dex-Ficoll system", "value": "reduces"}, {"measurement": "effect of binding on the K value of the protein", "setting": "bovine β-lactoglobulin; PEG-Phosphate, Dex-PEG, and Dex-Ficoll-NaSCN systems", "value": "increases"}]}
{"compound": "hen egg white lysozyme: Lysozyme from hen egg white (Sigma); protein alone, row 'None' of Table 2", "values": [{"measurement": "Partition coefficient K-value, PEG-3350-Phosphate system", "setting": "hen egg white lysozyme", "value": "2.278 ± 0.006"}, {"measurement": "Partition coefficient K-value, Dex-PEG system", "setting": "hen egg white lysozyme", "value": "2.728 ± 0.010"}, {"measurement": "Partition coefficient K-value, Dex-Ficoll system", "setting": "hen egg white lysozyme", "value": "0.890 ± 0.007"}, {"measurement": "Partition coefficient K-value, Dex-Ficoll-Na2SO4 system", "setting": "hen egg white lysozyme", "value": "1.239 ± 0.008"}]}
